Measurements taken from ChEMBL document CHEMBL5385875, “Tumor killing by a dietary curcumin mono-carbonyl analog that works as a selective ROS generator via TrxR inhibition” (Eur J Med Chem, 2023).
The source made the active and inactive calls. The calls are words filed in the database; no cut-off is given here.

Experiments:
[1] = system: NCI-H460; experiment: Cytotoxicity against human NCI-H460 cells assessed as reduction in cell viability incubated for 48 hrs by MTT assay; type: functional, cell-based; settings: NCI-H460, 48 h
[2] = system: A549; experiment: Cytotoxicity against human A549 cells assessed as reduction in cell viability incubated for 48 hrs by MTT assay; type: functional, cell-based; settings: A549, 48 h
[3] = system: HepG2; experiment: Cytotoxicity against human HepG2 cells assessed as reduction in cell viability incubated for 48 hrs by MTT assay; type: functional, cell-based; settings: HepG2, 48 h
[4] = system: HT-1080; experiment: Cytotoxicity against human HT-1080 cells assessed as reduction in cell viability incubated for 48 hrs by MTT assay; type: functional, cell-based; settings: HT-1080, 48 h
[5] = Cytotoxicity against human MRC5 cells assessed as reduction in cell viability incubated for 48 hrs by MTT assay; type: toxicity, cell-based
[6] = Selectivity index, ratio of IC50 for human MRC5 cells to IC50 for human NCI-H460 cells; type: toxicity; settings: MRC5 cells versus NCI-H460 cells, read-out: Ratio IC50
[7] = system: NCI-H460; experiment: Induction of intracellular ROS accumulation in human NCI-H460 cells at 2 uM measured after 6 hrs by DCFH-DA dye based fluorescence assay; type: functional, cell-based
[8] = system: NCI-H460; experiment: Induction of ROS accumulation in human NCI-H460 cells assessed as reduction in GSH levels by measuring yellow green fluorescence incubated for 9 hrs by fluorescence microscope based analysis; type: functional, cell-based
[9] = biological target: Thioredoxin reductase (Homo sapiens) (UniProt Q16881+Q9NNW7+Q86VQ6); experiment: Inhibition of TrxR in human NCI-H460 cells at 2 uM measured after 6 hrs by fluorescence microscopy based analysis; type: cell-based

| SMILES | IC50 [1] | IC50 [2] | IC50 [3] | IC50 [4] | IC50 at 48 h [5] | selectivity ratio [6] | Activity [7] | Activity [8] | inhibition [9] |
| --- | --- | --- | --- | --- | --- | --- | --- | --- | --- |
| COc1ccccc1/C=C1\CNC/C(=C\c2ccccc2OC)C1=O | 2.88 µM | 3.32 µM | 1.93 µM | 35.9 µM | 3.67 µM | 1.27 | inactive |  |  |
| COc1ccccc1/C=C1\CCC/C(=C\c2ccccc2OC)C1=O | 79.8 µM | 66.8 µM | 60.1 µM | > 100 µM | > 100 µM |  |  |  |  |
| O=C1/C(=C/c2ccccc2C(F)(F)F)CNC/C1=C\c1ccccc1C(F)(F)F | > 100 µM | > 100 µM | > 100 µM | > 100 µM | > 100 µM |  | inactive |  |  |
| O=C1/C(=C/c2cccc(C(F)(F)F)c2)CCC/C1=C\c1cccc(C(F)(F)F)c1 | 6.06 µM | 3.96 µM | 3.54 µM | 6.34 µM | 21.9 µM | 3.62 |  |  |  |
| COc1cc(/C=C/C(=O)CC(=O)/C=C/c2ccc(O)c(OC)c2)ccc1O [CURCUMIN] |  | 44.8 µM | 22.8 µM | 21.9 µM | 51.2 µM | 2.52 | inactive | inactive | inactive |
| COc1cccc(/C=C2\CNC/C(=C\c3cccc(OC)c3)C2=O)c1 | 7.93 µM | 14.3 µM | 5.19 µM | 20 µM | 9.11 µM | 1.23 | inactive |  |  |
| COc1ccccc1/C=C1\CN(C)C/C(=C\c2ccccc2OC)C1=O | 8.39 µM | 6.81 µM | 10.7 µM | 9.62 µM | 17 µM | 2.03 |  |  |  |
| CN1C/C(=C\c2cccc(C(F)(F)F)c2)C(=O)/C(=C/c2cccc(C(F)(F)F)c2)C1 | 2.94 µM | 1.08 µM | 1.12 µM | 3.86 µM | 9.25 µM | 3.15 |  |  |  |
| O=C1/C(=C/c2ccc(C(F)(F)F)cc2)CNC/C1=C\c1ccc(C(F)(F)F)cc1 | 7.11 µM | 2.02 µM | 37.1 µM | 5.48 µM | 8.65 µM | 1.22 | inactive |  |  |
| COc1ccc(/C=C2\CCC/C(=C\c3ccc(OC)cc3)C2=O)cc1 | > 100 µM | > 100 µM | > 100 µM | > 100 µM | > 100 µM |  |  |  |  |
| COc1cccc(/C=C2\CN(C)C/C(=C\c3cccc(OC)c3)C2=O)c1 | 5.68 µM | 1.18 µM | 1.36 µM | 1.99 µM | 13.4 µM | 2.37 |  |  |  |
| CN1C/C(=C\c2ccccc2C(F)(F)F)C(=O)/C(=C/c2ccccc2C(F)(F)F)C1 | > 100 µM | > 100 µM | > 100 µM | 49.5 µM | > 100 µM |  |  |  |  |
| O=C1/C(=C/c2ccccc2)CCC/C1=C\c1ccccc1 [2,6-DIBENZYLIDENECYCLOHEXANONE] | 50.5 µM | 26.3 µM | 28.5 µM | 32.6 µM | > 100 µM |  |  |  |  |
| CN1C/C(=C\c2ccccc2)C(=O)/C(=C/c2ccccc2)C1 | 26.9 µM | 11.3 µM | 10.6 µM | 3.82 µM | 31.3 µM | 1.16 |  |  |  |
| COc1cccc(/C=C2\CCC/C(=C\c3cccc(OC)c3)C2=O)c1 | 16.4 µM | 11.6 µM | 14 µM | 22.2 µM | 46 µM | 2.81 |  |  |  |
| O=C1/C(=C/c2ccccc2)CNC/C1=C\c1ccccc1 | 2.34 µM | 7.36 µM | 1.38 µM | 5.41 µM | 4.85 µM | 2.07 | inactive | inactive | inactive |
| COc1ccc(/C=C2\CNC/C(=C\c3ccc(OC)cc3)C2=O)cc1 | > 100 µM | > 100 µM | > 100 µM | > 100 µM | > 100 µM |  | inactive |  |  |
| O=C1/C(=C/c2ccc(C(F)(F)F)cc2)CCC/C1=C\c1ccc(C(F)(F)F)cc1 | 14.4 µM | 2.97 µM | > 100 µM | 7.2 µM | 47.7 µM | 3.32 |  |  |  |
| O=C1/C(=C/c2ccccc2C(F)(F)F)CCC/C1=C\c1ccccc1C(F)(F)F | > 100 µM | > 100 µM | > 100 µM | > 100 µM | > 100 µM |  |  |  |  |
| CN1C/C(=C\c2ccc(C(F)(F)F)cc2)C(=O)/C(=C/c2ccc(C(F)(F)F)cc2)C1 | 2.2 µM | 1.58 µM | 1.01 µM | 2.03 µM | 4.76 µM | 2.16 |  |  |  |
| CC[C@@]1(O)C(=O)OCc2c1cc1n(c2=O)Cc2cc3ccccc3nc2-1 [CAMPTOTHECIN] | 0.79 µM |  |  |  | 9.02 µM | 11.4 |  |  |  |
| O=c1[nH]cc(F)c(=O)[nH]1 [FLUOROURACIL] | 24.8 µM |  |  |  | 246 µM | 9.89 |  |  |  |
| COc1ccc(/C=C2\CN(C)C/C(=C\c3ccc(OC)cc3)C2=O)cc1 | > 100 µM | > 100 µM | > 100 µM | > 100 µM | > 100 µM |  |  |  |  |
